# Source: US20210000966A1, “HSP90-TARGETING CONJUGATES AND FORMULATIONS THEREOF” (TARVEDA THERAPEUTICS, INC., priority 2017, published 2021)
# Like-named read-outs stand apart in the source and are kept apart here.
# Experiments:
# NCI-H460 cells = experiment: NCI-H460 tumor cell cytotoxicity assay (CellTiter-Glo); assay type: cell-based; conditions: Homo sapiens, NCI-H460, 48 h
# Protocol: NCI-H460 cells (non-small cell lung cancer) were plated at 500 cells per well and incubated for 20-24 hrs at 37° C. at 5% CO2. Post cell incubation, compounds were reconstituted in DMSO to a stock concentration of 200 uM. A compound plate was then prepared containing a 10 point dilution in RPMI+10% FBS+0.25% DMSO. 5 uL of the dilution was then added for a final working concentration range of 10 uM to 0.0005 uM. Compounds and cells were then incubated for 48 hrs. Cells were then analyzed by CellTiter-Glo for ATP levels and percent inhibition calculated.
# human total EbB2/Her2 = experiment: HER2 degradation assay (ELISA) in BT474 cells; assay type: cell-based; conditions: BT-474, 16 hrs, read-out: Her2 Degradation IC50 Abs IC50
# Protocol: BT474 (breast cancer) cells were plated at 12,000 cells per well and incubated for 20-24 hrs at 37° C. at 5% CO2. Post cell incubation, compounds were reconstituted in DMSO to a stock concentration of 5 mM. A compound plate was then prepared containing a 10 point dilution in DMSO. 2 uL of these dilutions were then added to the cells for a final working concentration of 5 uM to 0.0003 uM. Compounds and cells were incubated for 16 hrs. Media was then removed, cells washed, lysed, and analyzed for human total EbB2/Her2 levels by ELISA.
# HSP90α = target: T1, HSP90α (Homo sapiens, UniProt P07900); experiment: HSP90 binding, HSP90α Assay Kit (fluorescence polarization, labeled geldanamycin competition)
# T1 construct: purchased
# Protocol: The bindings of the conjugates to HSP90 were studied with the HSP90α Assay Kit. The HSP90α Assay Kit is designed for identification of HSP90α inhibitors using fluorescence polarization. The assay is based on the competition of fluorescently labeled geldanamycin for binding to purified recombinant HSP90α. The key to the HSP90α Assay Kit is the fluorescently labeled geldanamycin. The fluorescently labeled geldanamycin is incubated with a sample containing HSP90α enzyme to produce a change in fluorescent polarization that can then be measured using a fluorescence reader.
# PARP = PARP inhibiting activity (FIG. 8A); assay type: biochemical; conditions: in words
# Description: (§1) The activity of the respective payload is blocked until the linker moiety gets cleaved in the tumor and releases active unblocked payload. Through the HSP90 platform, toxicity is mitigated by masking the payload's active site until it can be delivered to the tumor.
# (§2) FIG. 8A compares the activity of Conjugate 45 and its payload (talazoparib). FIG. 8B compares the activity of Conjugate 46 and its payload (ulixertinib). FIG. 8C compares the activity of Conjugate 47 and its payload TAK-733. The data further support that attaching a payload to a HSP90 binding ligand blocks the target activity of the payload. The HSP90 bindings of the HSP90 ligands are not affected.
# topoisomerase-I = target: T2, topoisomerase-I (Homo sapiens, UniProt P11387); experiment: DNA damage / topoisomerase activity (FIG. 9); assay type: biochemical; conditions: FIG. 9, in words
# T2 sequence (P11387 1-765): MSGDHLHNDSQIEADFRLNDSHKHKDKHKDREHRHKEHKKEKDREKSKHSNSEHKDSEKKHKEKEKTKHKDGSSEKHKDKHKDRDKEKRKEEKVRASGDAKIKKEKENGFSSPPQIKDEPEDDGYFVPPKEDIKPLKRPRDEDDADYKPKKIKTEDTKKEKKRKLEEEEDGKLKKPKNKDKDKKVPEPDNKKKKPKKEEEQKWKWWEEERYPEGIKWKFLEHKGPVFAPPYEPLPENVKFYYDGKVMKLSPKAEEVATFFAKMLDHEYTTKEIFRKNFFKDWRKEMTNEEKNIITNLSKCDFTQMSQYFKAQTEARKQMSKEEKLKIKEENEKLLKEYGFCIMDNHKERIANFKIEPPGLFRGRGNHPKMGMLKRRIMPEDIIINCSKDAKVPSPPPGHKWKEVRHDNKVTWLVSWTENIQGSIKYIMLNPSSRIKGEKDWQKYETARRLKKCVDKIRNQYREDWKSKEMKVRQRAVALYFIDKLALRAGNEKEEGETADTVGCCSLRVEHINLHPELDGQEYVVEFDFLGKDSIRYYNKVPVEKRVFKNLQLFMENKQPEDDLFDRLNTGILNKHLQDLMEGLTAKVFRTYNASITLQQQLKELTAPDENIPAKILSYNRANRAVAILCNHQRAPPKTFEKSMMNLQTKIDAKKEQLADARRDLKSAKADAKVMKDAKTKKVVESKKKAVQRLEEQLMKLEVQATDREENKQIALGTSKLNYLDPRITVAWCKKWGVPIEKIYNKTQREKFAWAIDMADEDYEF
# Description: In one further study, DNA damage caused by Conjugate 48 (a conjugate comprising a ganetespib derivative and SN-38) was compared with the DNA damage caused by SN-38, the payload of Conjugate 48. SN-38 and its pre-drug, irinotecan (an analog of camptothecin), are inhibitors of topoisomerase-I and potently cause DNA damage that results in nicks in the DNA. […] The conjugation of SN-38 to the HSP90 ligand results in the masking of the activity of SN-38 until it can be selectively delivered to tumors where linker cleavage occurs.
# [1] = Glucose levels post dosing in mice; assay type: in vivo; conditions: FIG. 7, in words
# Description: In an in vivo study in mice, glucose levels were monitored post PI3K inhibitor (Copanlisib) and Conjugate 38 dosing. […] Therefore, conjugating a PI3K enzyme inhibitor payload to a HSP90 targeting ligand reduced the normal tissue activity of glucose increase in mice.
# [2] = system: LS174t colon tumor xenograft; experiment: LS174t colon tumor xenograft model, efficacy; assay type: in vivo, mice; conditions: FIG. 3A, in words
# [3] = assay type: in vivo, mice; conditions: LS174t xenograft, in words
# Protocol: Accumulation and retention of Conjugate 38 was tested in this tumor xenograft model.
# ERK1/2 = ERK1/2 inhibiting activity (FIG. 8B); assay type: biochemical; conditions: in words
# Description: as §1, §2
# [4] = n = 1, read-out: H460 in vitro cytotoxicity
# [5] = n = 2, read-out: H460 in vitro cytotoxicity
structure (smiles),measurement,setting,value
COc1c(OCCCN2CCN(C(=O)Oc3ccc(CC(=O)N4CCC(CCn5ccc6cc(-n7c(O)nnc7-c7cc(C(C)C)c(O)cc7O)ccc65)CC4)cc3)CC2)ccc2c1N=C(NC(=O)c1cnc(N)nc1)N1CCN=C21 [Compound 40],IC50,NCI-H460 cells; [4],0.247 µM
same,IC50,NCI-H460 cells; [5],0.056 µM
CCNC(=O)c1nnc(-c2cc(C(C)C)c(O)cc2O)n1-c1ccc(CN2CCN(C(=O)Cc3ccc(CC(=O)N(C)CCCOc4ccc5c(c4OC)N=C(NC(=O)c4cnc(N)nc4)N4CCN=C54)cc3)CC2)cc1 [Compound 43],IC50,NCI-H460 cells; [4],0.042 µM
same,IC50,NCI-H460 cells; [5],0.031 µM
CCNC(=O)c1nnc(-c2cc(C(C)C)c(O)cc2O)n1-c1ccc(CN2CCC(C(=O)N3CCN(c4ccc(OC(=O)N5CCN(CCCOc6ccc7c(c6OC)N=C(NC(=O)c6cnc(N)nc6)N6CCN=C76)CC5)cc4)CC3)CC2)cc1 [Compound 31],IC50,human total EbB2/Her2,0.103 µM
same,Kd,HSP90α; read-out: HSP90 Binding Kd,0.00138 µM
CC(C)c1cc(-c2nnc(O)n2-c2ccc(CN3CCN(CCC(C)(C)SS[C@H](C)COC(=O)N(CCN(C)C)Cn4nc5c6c(cc(F)cc6c4=O)N[C@H](c4ccc(F)cc4)[C@H]5c4ncnn4C)CC3)cc2)c(O)cc1O [Conjugate 45],PARP inhibiting activity compared with payload (talazoparib),PARP,lower than its payload
CCNC(=O)c1nnc(-c2cc(C(C)C)c(O)cc2O)n1-c1ccc(N(C)C2CCN(C(=O)CCC(=O)OC[C@H](O)Cn3cnc4c(c(Nc5ccc(I)cc5F)c(F)c(=O)n4C)c3=O)CC2)cc1 [Compound 47],Kd,HSP90α; read-out: HSP90 KD,0.0012 µM
CCNC(=O)c1nnc(-c2cc(C(C)C)c(O)cc2O)n1-c1ccc(C(=O)NCCc2ccc(OC(=O)N(C)CCCOc3ccc4c(c3OC)N=C(NC(=O)c3cnc(N)nc3)N3CCN=C43)cc2)cc1 [Compound 44],IC50,NCI-H460 cells; [4],0.527 µM
same,IC50,NCI-H460 cells; [5],0.325 µM
CCNC(=O)c1nnc(-c2cc(C(C)C)c(O)cc2O)n1-c1ccc(C(=O)N2CCN(Cc3ccc(OC(=O)N4CCN(CCCOc5ccc6c(c5OC)N=C(NC(=O)c5cnc(N)nc5)N5CCN=C65)CC4)cc3)CC2)cc1 [Compound 32],IC50,human total EbB2/Her2,0.049 µM
same,Kd,HSP90α; read-out: HSP90 Binding Kd,0.00086 µM
CCc1c2c(nc3ccc(O)cc13)-c1cc3c(c(=O)n1C2)COC(=O)[C@]3(O)CC [SN-38],DNA damage,topoisomerase-I,DNA damage even at 1 uM
CCc1c2c(nc3ccc(OC(=O)N4CCC(CCn5ccc6cc(-n7c(O)nnc7-c7cc(C(C)C)c(O)cc7O)ccc65)CC4)cc13)-c1cc3c(c(=O)n1C2)COC(=O)[C@]3(O)CC [Conjugate 48],DNA damage,topoisomerase-I,negligible levels of DNA damage up to 100 uM
CCNC(=O)c1nnc(-c2cc(C(C)C)c(O)cc2O)n1-c1ccc(CN2CCN(C(=O)N3CCN(CCCOc4ccc5c(c4OC)N=C(NC(=O)c4cnc(N)nc4)N4CCN=C54)CC3)CC2)cc1 [Compound 36],IC50,human total EbB2/Her2,0.072 µM
"COc1c(OCCCN2CCOCC2)ccc2c1N=C(NC(=O)c1cnc(N)nc1)N1CCN=C21 [Copanlisib, reference compound]",glucose concentration after dosing,[1],increase in glucose levels
same,efficacy (tumor growth inhibition) in LS174t xenograft,[2],lack of efficacy
same,tumor retention time,[3],much shorter tumor retention time
CCc1c2c(nc3ccc(OC(=O)N4CCC(N5CCCCC5)CC4)cc13)-c1cc3c(c(=O)n1C2)COC(=O)[C@]3(O)CC [irinotecan],DNA damage,topoisomerase-I,moderate level of DNA damaging activity
COc1c(OCCCN2CCN(C(=O)Oc3ccc(CC(=O)N4CCN(Cc5ccc(-n6c(O)nnc6-c6cc(C(C)C)c(O)cc6O)cc5)CC4)cc3)CC2)ccc2c1N=C(NC(=O)c1cnc(N)nc1)N1CCN=C21 [Compound 39],IC50,human total EbB2/Her2,> 20 µM
same,Kd,HSP90α; read-out: HSP90 Binding Kd,0.0018 µM
CCNC(=O)c1nnc(-c2cc(C(C)C)c(O)cc2O)n1-c1ccc(CN2CCC(C(=O)N3CCC(C(=O)OC[C@@H](NC(=O)c4cc(-c5cc(NC(C)C)ncc5Cl)c[nH]4)c4cccc(Cl)c4)CC3)CC2)c(F)c1 [Compound 46],Kd,HSP90α; read-out: HSP90 KD,0.001 µM
CCNC(=O)c1nnc(-c2cc(C(C)C)c(O)cc2O)n1-c1ccc(CN2CCN(C(=O)c3ccc(OC(=O)N4CCN(CCCOc5ccc6c(c5OC)N=C(NC(=O)c5cnc(N)nc5)N5CCN=C65)CC4)cc3)CC2)cc1 [Compound 30],IC50,human total EbB2/Her2,0.038 µM
same,Kd,HSP90α; read-out: HSP90 Binding Kd,0.00068 µM
CCNC(=O)c1nnc(-c2cc(C(C)C)c(O)cc2O)n1-c1ccc(C(=O)NCc2cc(C)c(OC(=O)N3CCN(CCCOc4ccc5c(c4OC)N=C(NC(=O)c4cnc(N)nc4)N4CCN=C54)CC3)c(C)c2)cc1 [Compound 34],IC50,human total EbB2/Her2,0.141 µM
same,Kd,HSP90α; read-out: HSP90 Binding Kd,0.00137 µM
CCNC(=O)c1nnc(-c2cc(C(C)C)c(O)cc2O)n1-c1ccc(C(=O)N2CCN(c3ccc(OC(=O)N4CCN(CCCOc5ccc6c(c5OC)N=C(NC(=O)c5cnc(N)nc5)N5CCN=C65)CC4)cc3)CC2)cc1 [Compound 29],IC50,human total EbB2/Her2,0.059 µM
same,Kd,HSP90α; read-out: HSP90 Binding Kd,0.00103 µM
CCNC(=O)c1nnc(-c2cc(C(C)C)c(O)cc2O)n1-c1ccc(CN2CCC(C(=O)N3CCC(C(=O)OC[C@@H](NC(=O)c4cc(-c5cc(NC(C)C)ncc5Cl)c[nH]4)c4cccc(Cl)c4)CC3)CC2)c(F)c1 [Conjugate 46],ERK1/2 inhibiting activity compared with payload (ulixertinib),ERK1/2,lower than its payload
"CC(C)c1cc(-c2nnc(O)n2-c2ccc3c(ccn3C)c2)c(O)cc1O [ganetespib, reference compound]",DNA damage,topoisomerase-I,none
same,efficacy (tumor growth inhibition) in LS174t xenograft,[2],lack of efficacy
CCNC(=O)c1nnc(-c2cc(C(C)C)c(O)cc2O)n1-c1ccc(C(=O)N2CCN(Cc3ccc(OC(=O)N4CCN(CCCOc5ccc6c(c5OC)N=C(NC(=O)c5cnc(N)nc5)N5CCN=C65)CC4)c(C)c3)CC2)cc1 [Compound 33],IC50,human total EbB2/Her2,0.041 µM
same,Kd,HSP90α; read-out: HSP90 Binding Kd,0.00103 µM
CCNC(=O)c1nnc(-c2cc(C(C)C)c(O)cc2O)n1-c1ccc(C(=O)NCCc2ccc(OC(=O)N(CCCOc3ccc4c(c3OC)N=C(NC(=O)c3cnc(N)nc3)N3CCN=C43)C(C)C)cc2)cc1 [Compound 42],IC50,NCI-H460 cells; [4],0.135 µM
same,IC50,NCI-H460 cells; [5],0.147 µM
CC(C)c1cc(-c2nnc(O)n2-c2ccc(CN3CCN(CCC(C)(C)SS[C@H](C)COC(=O)N(CCN(C)C)Cn4nc5c6c(cc(F)cc6c4=O)N[C@H](c4ccc(F)cc4)[C@H]5c4ncnn4C)CC3)cc2)c(O)cc1O [Compound 45],Kd,HSP90α; read-out: HSP90 KD,0.00033 µM
CCNC(=O)c1nnc(-c2cc(C(C)C)c(O)cc2O)n1-c1ccc(CN2CCN(C(=O)Oc3ccc(OC(=O)N4CCN(CCCOc5ccc6c(c5OC)N=C(NC(=O)c5cnc(N)nc5)N5CCN=C65)CC4)cc3)CC2)cc1 [Compound 37],IC50,human total EbB2/Her2,0.119 µM
